What is called clearance is a measure of how efficiently the substance is removed, as volume per time. One may read the half-life as how long it takes for the measured level to halve. The inhibition in vivo is the percentage by which the read-out fell short of the control. The inhibition is the relative decrease from the control value, in per cent. By IC50 is commonly meant the concentration needed to halve the response being measured. As a reminder, the bioavailability is dose-corrected exposure relative to a reference, in per cent. One may read the Tmax as the time at which the peak concentration occurs. The MRT is the average time that molecules of a dose stay in the body.

Consider one molecule from ChEMBL document CHEMBL4828769, “Discovery of AS-0141, a Potent and Selective Inhibitor of CDC7 Kinase for the Treatment of Solid Cancers” (J Med Chem, 2021).

Series [1] is filed under the species Homo sapiens. Nature of the series: Selectivity index, ratio of IC50 for CLK1 (unknown origin) in presence of 1 mM ATP without preincubation to IC50 for CLK1 (unknown origin) in presence of 1 mM ATP with preincubation.
The nature of series [2]: Clearance in rat at 2 mg/kg, iv. Format: ADME, organism-based. The note with it: in vivo.
Series [3] in a line: Half life in rat at 10 mg/kg, po. Format: ADME, organism-based. The note with it: in vivo.
A short description of series [4]: In vivo inhibition of CDC7 in human SW-620 cells xenografted in BALB/c nude mouse assessed as reduction in phosphorylation of MCM2 at Ser53 residue at 120 mg/kg, po measured after 8 hrs. The note with it: SW-620, po. Format: functional. Background: In xenograft studies the graft and the host belong to different species.
Series [5] in a line: Half life in dog at 1 mg/kg, iv. The note with it: in vivo. It counts as ADME, organism-based, Canis lupus familiaris.
Series [6] deals with Cell division cycle 7-related protein kinase (Homo sapiens, UniProt O00311). Put plainly: Inhibition of CDC7 in human COLO205 cells assessed as reduction in MCM2 phosphorylation at S53 residue at 0.1 uM incubated for 48 hrs by Western blot analysis relative to control. It counts as cell-based. The note with it: COLO 205.
Sequence of Cell division cycle 7-related protein kinase (O00311 whole entry, looked up): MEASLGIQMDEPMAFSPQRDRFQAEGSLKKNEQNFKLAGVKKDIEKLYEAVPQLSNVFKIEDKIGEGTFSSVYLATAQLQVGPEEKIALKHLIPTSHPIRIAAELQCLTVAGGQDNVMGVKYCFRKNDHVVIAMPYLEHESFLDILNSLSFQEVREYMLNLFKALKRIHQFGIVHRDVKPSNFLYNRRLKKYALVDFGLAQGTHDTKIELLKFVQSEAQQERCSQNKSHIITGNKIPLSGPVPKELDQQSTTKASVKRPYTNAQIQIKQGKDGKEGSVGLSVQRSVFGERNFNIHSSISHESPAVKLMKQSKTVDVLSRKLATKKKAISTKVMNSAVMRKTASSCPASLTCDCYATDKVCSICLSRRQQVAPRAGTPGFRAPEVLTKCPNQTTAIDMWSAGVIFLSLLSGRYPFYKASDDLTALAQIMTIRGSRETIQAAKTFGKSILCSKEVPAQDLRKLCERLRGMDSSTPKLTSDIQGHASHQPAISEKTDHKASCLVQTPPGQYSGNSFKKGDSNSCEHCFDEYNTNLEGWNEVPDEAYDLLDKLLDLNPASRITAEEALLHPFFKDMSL
For series [7], the target named is Dual specificity protein kinase CLK1 (Homo sapiens, UniProt P49759). Put plainly: Inhibition of CLK1 (unknown origin) in presence of 1 mM ATP without preincubation.
Sequence of Dual specificity protein kinase CLK1 (P49759 whole entry): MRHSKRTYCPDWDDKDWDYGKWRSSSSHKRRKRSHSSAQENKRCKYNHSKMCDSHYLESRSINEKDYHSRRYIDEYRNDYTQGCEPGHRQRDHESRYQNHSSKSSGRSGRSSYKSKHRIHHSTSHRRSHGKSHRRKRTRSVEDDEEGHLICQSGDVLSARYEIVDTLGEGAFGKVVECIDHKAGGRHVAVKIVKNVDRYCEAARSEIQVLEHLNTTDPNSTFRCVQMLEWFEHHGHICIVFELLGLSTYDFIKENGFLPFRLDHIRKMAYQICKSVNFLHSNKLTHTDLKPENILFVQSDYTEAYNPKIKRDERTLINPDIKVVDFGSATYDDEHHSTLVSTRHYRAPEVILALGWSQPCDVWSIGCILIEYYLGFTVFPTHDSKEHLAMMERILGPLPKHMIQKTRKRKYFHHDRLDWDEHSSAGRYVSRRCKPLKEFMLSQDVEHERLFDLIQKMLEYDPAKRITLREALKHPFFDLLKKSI
The subject of series [8] is SW-620. Put plainly: Induction of apoptosis in human SW-620 cells assessed as increase in cleaved PARP level incubated for 48 hrs by Western blot analysis. It counts as functional, cell-based. Particulars: dose 0.03-1 µM. A general note: Immunoblotting shows a protein as a band on a membrane.
Series [9] in a line: Inhibition of human CDC7/ASK using FITC-labelled MCM2 substrate preincubated for 30 mins followed by substrate addition and measured after 5 hrs in presence of 1 mM of ATP.
Series [10] can be described thus: Oral bioavailability in mouse at 10 mg/kg. Format: ADME, organism-based. Particulars: in vivo.
The target in series [11] is Dual specificity protein kinase CLK2 (Homo sapiens, UniProt P49760). Nature of the series: Inhibition of CLK2 (unknown origin) in presence of 1 mM ATP with preincubation.
Sequence of Dual specificity protein kinase CLK2 (P49760 whole entry): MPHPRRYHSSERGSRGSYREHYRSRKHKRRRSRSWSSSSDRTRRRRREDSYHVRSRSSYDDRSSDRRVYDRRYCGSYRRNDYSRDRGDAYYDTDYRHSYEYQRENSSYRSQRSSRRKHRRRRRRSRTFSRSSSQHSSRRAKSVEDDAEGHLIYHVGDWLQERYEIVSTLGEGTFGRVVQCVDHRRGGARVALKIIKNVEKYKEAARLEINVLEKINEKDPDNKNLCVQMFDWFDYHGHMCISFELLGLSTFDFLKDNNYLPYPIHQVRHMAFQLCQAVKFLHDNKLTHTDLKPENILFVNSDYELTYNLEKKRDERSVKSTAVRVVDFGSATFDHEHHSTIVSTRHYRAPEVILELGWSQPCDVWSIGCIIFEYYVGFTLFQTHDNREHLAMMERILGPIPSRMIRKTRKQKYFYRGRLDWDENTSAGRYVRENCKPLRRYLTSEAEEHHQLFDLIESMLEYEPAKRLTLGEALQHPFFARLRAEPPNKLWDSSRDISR
A short description of series [12]: Oral bioavailability in rat at 10 mg/kg. It counts as ADME, organism-based. Particulars: in vivo.
Series [13] relates to SW-620. Put plainly: Induction of apoptosis in human SW-620 cells assessed as increase in gamma-H2AX level incubated for 48 hrs by Western blot analysis. It counts as functional, cell-based. Particulars: dose 0.03-1 µM.
Series [14] can be described thus: Tmax in mouse at 10 mg/kg, po. Format: ADME, organism-based. Particulars: in vivo.
Series [15] deals with Serine/threonine-protein kinase pim-1 (Homo sapiens, UniProt P11309). Nature of the series: Inhibition of PIM1 (unknown origin) in presence of 1 mM ATP with preincubation.
Sequence of Serine/threonine-protein kinase pim-1 (P11309 whole entry): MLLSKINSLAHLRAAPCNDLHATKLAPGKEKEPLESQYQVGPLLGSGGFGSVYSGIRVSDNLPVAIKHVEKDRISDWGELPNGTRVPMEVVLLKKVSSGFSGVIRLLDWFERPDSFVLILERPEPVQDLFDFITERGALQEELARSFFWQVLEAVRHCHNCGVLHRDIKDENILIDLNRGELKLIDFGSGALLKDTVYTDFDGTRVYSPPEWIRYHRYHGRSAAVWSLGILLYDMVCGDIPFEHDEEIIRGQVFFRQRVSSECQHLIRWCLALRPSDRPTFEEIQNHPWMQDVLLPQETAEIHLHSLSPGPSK
In series [16] the test system is SW-620. Nature of the series: Induction of apoptosis in human SW-620 cells assessed as increase in cleaved caspase 3 level incubated for 48 hrs by Western blot analysis. Format: functional, cell-based. The note with it: dose 0.03-1 µM.
The nature of series [17]: In vivo inhibition of CDC7 in human SW-620 cells xenografted in BALB/c nude mouse assessed as reduction in phosphorylation of MCM2 at Ser53 residue at 120 mg/kg, po measured after 24 hrs. It counts as functional. Particulars: SW-620, po.
Series [18] in a line: MRT in rat at 2 mg/kg, iv. It counts as ADME, organism-based. The note with it: in vivo.
The species named for series [19] is Homo sapiens. Put plainly: Selectivity index, ratio of IC50 for PIM1 (unknown origin) in presence of 1 mM ATP without preincubation to IC50 for PIM1 (unknown origin) in presence of 1 mM ATP with preincubation.
The species entered for series [20] is Homo sapiens. Put plainly: Selectivity index, ratio of IC50 for CLK2 (unknown origin) in presence of 1 mM ATP without preincubation to IC50 for CLK2 (unknown origin) in presence of 1 mM ATP with preincubation.

The structures appear in SMILES notation.

Consider `CCOC(=O)C1=C(NN2CCN(CC(F)(F)F)CC2)O/C(=C\c2c[nH]c3ncccc23)C1=O` [MONZOSERTIB], for which the Ratio IC50 in the series filed under Homo sapiens [1] is 1; in the series listed under Homo sapiens [19], 0.9; in the series listed under Homo sapiens [20], 1.2. The molecule also had a clearance in series [2] of 2.26 L/h/kg. For the same molecule, the half-life in [3] was 6.1 h; in series [5], 4.8 h. The results for the inhibition in vivo at 120 mg/kg in series [4] and in [17] were 83% and 36%, respectively. For the same molecule, in [6], the inhibition amounted to 100%. Also, the half-inhibitory concentration (IC50) in series [7] stood at 0.212 µM; in series [9], 0.0024 µM; in series [11], 0.227 µM; in series [15], 0.034 µM. In addition, the Activity result with SW-620 [8], in the series with SW-620 [13] and in the series on SW-620 [16] was “Dose-Dependent Effect” in each case. For the same molecule, the bioavailability in [10] was 30.6%; in series [12], 54.4%. For the same molecule, in series [14], the Tmax came out at 4.98 min. Besides, the MRT in series [18] came to 1.45 h.
